{"source": "patent US7439226B2", "about": "“Serine protease inhibitors” (The United States of America as represented by the …, priority 2003, dated 2008)", "key": {"[1]": {"target": "matriptase (Homo sapiens, UniProt Q9Y5Y6)", "sequence (Q9Y5Y6 whole entry, species assumed)": "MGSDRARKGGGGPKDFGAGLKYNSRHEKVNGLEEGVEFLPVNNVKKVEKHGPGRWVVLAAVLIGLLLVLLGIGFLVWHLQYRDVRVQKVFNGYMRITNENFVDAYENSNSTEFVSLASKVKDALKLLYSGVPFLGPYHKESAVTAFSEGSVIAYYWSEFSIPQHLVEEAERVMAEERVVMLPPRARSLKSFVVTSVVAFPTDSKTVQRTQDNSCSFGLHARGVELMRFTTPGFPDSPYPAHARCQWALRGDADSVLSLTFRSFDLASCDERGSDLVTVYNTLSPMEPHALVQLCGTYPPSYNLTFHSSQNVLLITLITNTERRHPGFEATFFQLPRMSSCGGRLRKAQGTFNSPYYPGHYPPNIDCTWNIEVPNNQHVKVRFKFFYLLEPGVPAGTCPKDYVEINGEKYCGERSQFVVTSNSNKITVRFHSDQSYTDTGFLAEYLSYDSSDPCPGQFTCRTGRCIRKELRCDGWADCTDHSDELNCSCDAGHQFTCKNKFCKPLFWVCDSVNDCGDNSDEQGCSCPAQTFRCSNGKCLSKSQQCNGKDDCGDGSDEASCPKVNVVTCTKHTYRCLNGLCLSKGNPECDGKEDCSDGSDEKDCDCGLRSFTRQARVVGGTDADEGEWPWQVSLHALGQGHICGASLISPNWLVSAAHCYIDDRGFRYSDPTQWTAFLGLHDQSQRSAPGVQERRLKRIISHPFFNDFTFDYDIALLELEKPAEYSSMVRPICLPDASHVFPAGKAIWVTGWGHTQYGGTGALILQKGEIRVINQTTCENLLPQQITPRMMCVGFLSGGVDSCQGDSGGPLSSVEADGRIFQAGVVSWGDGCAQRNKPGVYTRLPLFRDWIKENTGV", "conditions": "background statement; cited from earlier work"}, "[2]": {"target": "Factor Xa (Homo sapiens, UniProt P00742)", "sequence (P00742 235-488 limits assumed)": "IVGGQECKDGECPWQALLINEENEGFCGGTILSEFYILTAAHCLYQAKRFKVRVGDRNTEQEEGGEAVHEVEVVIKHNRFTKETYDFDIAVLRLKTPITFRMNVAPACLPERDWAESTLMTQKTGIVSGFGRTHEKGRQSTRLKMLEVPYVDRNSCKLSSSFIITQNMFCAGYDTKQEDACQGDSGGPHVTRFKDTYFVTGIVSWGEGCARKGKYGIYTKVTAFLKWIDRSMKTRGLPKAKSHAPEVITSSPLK", "sequence (P00742 41-179 partner limits assumed)": "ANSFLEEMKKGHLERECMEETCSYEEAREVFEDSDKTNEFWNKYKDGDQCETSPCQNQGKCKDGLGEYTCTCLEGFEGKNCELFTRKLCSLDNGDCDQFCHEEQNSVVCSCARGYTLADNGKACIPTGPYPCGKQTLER", "conditions": "Luckett et al. J Mol. Biol. 1999; cited from earlier work"}, "[3]": {"target": "T1, bovine thrombin (Bos taurus, UniProt P00735)", "T1 construct": "purchased Sigma (Sigma Chemical Co., St. Louis, Mo.)", "experiment": "Thrombin inhibition, fluorescent substrate N-t-Boc Leu-Arg-Arg-AMC, Ki by Dixon plots", "format": "biochemical", "conditions": "read-out: Ki of SFTI-1 (nM), Thrombin; room temperature, pH 8.5", "source_text": "(§1) 13, 2003, and which is incorporated herein by reference."}, "[4]": {"target": "T2, cathepsin G (Homo sapiens, UniProt P08311)", "T2 sequence (P08311 21-244)": "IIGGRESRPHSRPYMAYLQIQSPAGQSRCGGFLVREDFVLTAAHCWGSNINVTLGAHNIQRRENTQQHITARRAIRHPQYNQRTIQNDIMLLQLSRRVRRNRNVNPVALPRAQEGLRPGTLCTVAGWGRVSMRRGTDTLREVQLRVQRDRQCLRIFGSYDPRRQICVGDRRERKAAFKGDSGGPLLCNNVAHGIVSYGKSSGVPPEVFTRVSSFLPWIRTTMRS", "conditions": "background statement; cited from earlier work"}, "[5]": {"target": "thrombin (Homo sapiens, UniProt P00734)", "conditions": "background statement; cited from earlier work"}, "[6]": {"target": "T3, Urokinase-type plasminogen activator (uPA) (Homo sapiens, UniProt P00749)", "T3 construct": "from a partially purified uPA from human urine; from tissue; host or cells: human urine", "experiment": "uPA inhibition, fluorescent substrate N-t-Boc-Leu-Gly-Arg-AMC, Ki by Dixon plots", "format": "biochemical", "conditions": "room temperature, pH 8.5", "source_text": "as §1"}, "[7]": {"test_system": "elastase", "conditions": "background statement; cited from earlier work"}}}
{"molecule": "CC[C@H](C)[C@@H]1NC(=O)[C@@H]2CCCN2C(=O)[C@@H]2CCCN2C(=O)[C@H]([C@@H](C)CC)NC(=O)[C@H](CO)NC(=O)[C@H](CCCCN)NC(=O)[C@H]([C@@H](C)O)NC(=O)[C@@H]2CSSC[C@H](NC1=O)C(=O)N[C@@H](Cc1ccccc1)C(=O)N1CCC[C@H]1C(=O)N[C@@H](CC(=O)O)C(=O)NCC(=O)N[C@@H](CCCNC(=N)N)C(=O)N2", "note": "[SFTI-1]", "values": [{"measurement": "inhibitory constant (Ki) against matriptase", "setting": "[1]", "result": "subnanomolar"}, {"measurement": "effect on the activity of Factor Xa", "setting": "[2]", "result": "no detectable effect"}, {"measurement": "Ki", "setting": "[3]", "result": 5050, "unit": "nM"}, {"measurement": "inhibitory constant (Ki) against cathepsin G", "setting": "[4]", "result": "subnanomolar"}, {"measurement": "inhibitory activity against thrombin compared with matriptase", "setting": "[5]", "result": "three orders of magnitude lower"}, {"measurement": "Ki", "setting": "[6]", "result": 500, "unit": "µM"}, {"measurement": "inhibitory activity against elastase compared with matriptase", "setting": "[7]", "result": "three orders of magnitude lower"}]}
